{
  "source": "paper PMC5321741",
  "about": "“Arylmethylamino steroids as antiparasitic agents” (Nature Communications, 2017)",
  "key": {"[1]": {"target": "T1, recombinant protein hGrx1-roGFP2 (Homo sapiens, UniProt P35754)", "T1 construct": "made in house", "experiment": "in vitro interaction with recombinant redox probe", "type": "biochemical", "conditions": "10 nM to 100 µM, 4 h and 24 h", "description": "(2) Chromogenic precipitating substrates following a poly-condensation (so called “polymerization”) pathway, which is tuneable by utilizing metal catalytic effects via introduction of metal chelating groups.32-33 […]\nHeterologous overexpression of hGrx1-roGFP2 and in vitro measurements with the recombinant protein were carried out as described45 with minor modifications. […] The emission of hGrx1-roGFP2 (510 nm) after excitation at 405 nm and 475 nm was measured in a plate reader (Clariostar, BMG Labtech) with optimal read settings. The ratio of the fluorescence […]\nsignals at 405/475 nm were calculated and plotted against time and/or concentration of compound 1o or redox active compounds. […]\n100 µM for 4 h and 24 h incubations. Transfection of the Pf3D7 strain with the redox sensor was carried out, and the parasites were cultured as described under constant drug pressure with 5 nM WR99210 (Jacobus Pharmaceuticals, New Jersey, USA).45,46 P. falciparum trophozoites were enriched via magnet separation.47 Parasitemia was counted by using Giemsa-stained blood smears. […] (6-8% parasitemia) were magnetically enriched (Miltenyi Biotec, Germany), counted by using the improved Neubauer hemocytometer (Brand GmbH, Germany), and returned to cell culture (at 0.5 x 10^6 trophozoites/µl) for at least 1 h to recover. […]"}, "[2]": {"tested_on": "P. berghei asexual stages", "experiment": "ex vivo drug assay (luciferase), asexual stages", "type": "cell-based", "conditions": "Plasmodium berghei, 24 h, read-out: IC50 against P. berghei ex vivo", "description": "Plates frozen at −80 °C were thawed at 37 °C. The cells were lysed at room temperature in 10 μl 1x luciferin lysis buffer (Luciferase Cell Culture Lysis 5 × reagent, Promega), and 100 μl luciferase assay substrate was added to each well (Luciferase Assay System, Promega). Luciferase activity was measured on a luminescence plate reader (Mithras LB940 luminometer, Berthold Technologies). The mean of the luciferase activity was calculated for each technical triplicate and normalized as follows: (Lucx−LucRBC)/(Lucsolvent−LucRBC) with Lucx and Lucsolvent=mean luciferase activity for parasites incubated with compound x and with solvent (DMSO for 1o and PBS for MB), respectively, and LucRBC=mean luciferase activity of non-infected red blood cells (background). IC50 values were calculated using Prism (GraphPad, log(inhibitor) versus normalized response—variable slope) in three independent experiments for the P. falciparum gametocyte assay and five for the P. berghei ex vivo drug assay.\nThe animal experiments described in this part were performed at the Institut de Biologie Moléculaire et Cellulaire (Strasbourg, France), using facilities and protocols adhering to national regulations of laboratory animal welfare in France. […] Parasitaemia was monitored via FACS analysis (FACSCalibur, BD Bioscience). […]"}},
  "data": [
    {"smiles": "COc1ccc2c(c1)CCC1C2CC[C@@]2(C)C1CC[C@H]2NCc1cc2ccccc2cc1O", "note": "(some centres unmarked) [1o]", "values": [
      {"measurement": "direct interaction with recombinant hGrx1-roGFP2", "setting": "[1]", "result": "No direct interaction was detected"},
      {"measurement": "IC50", "setting": "[2]", "result": "3.1 ± 2.4", "unit": "nM"}
    ]}
  ]
}
